# According to US7292944B2, “Establishment of biological cut-off values for predicting resistance to therapy” (priority 2000, dated 2007):
# Tested on: HIV
# Assay: Antivirogram phenotypic drug susceptibility of untreated patient samples relative to laboratory wild type standard virus
# Format: cell-based
# Conditions: for effect of the change in cut-off value on the decision concerning resistance of the samples: new versus old cut-off value (FIG. 4, FIG. 5)
# Description: In one embodiment, the biological cut-off values may be used in concert with direct phenotype assays, for example, Antivirogram™ (Virco, Inc.; WO 97/27480, U.S. Pat. No. 6,221,578 incorporated herein by reference). This assay is a phenotypic resistance assay that measures, in controlled laboratory conditions, the level of resistance of the HIV derived from an individual patient to each of the anti-HIV therapies currently available. The resistant ‘behavior’ of the virus may be the combined result of the effects of many different mutations and the complex interactions between them, including genetic changes that have not even been identified yet. In other words, it is a direct measure of resistance.
# The test provides a quantitative measure of viral resistance to all the available drugs. This is expressed in terms of the IC50. This is then compared to the IC50 for fully sensitive, non-mutated ‘wild-type’ virus. The resistance of the sampled virus to each therapy is then expressed in terms of a fold-change in IC50 compared to wild type. The report enables physicians to identify the therapy(s) that are no longer active and helps in the selection of the optimal combination of drugs for the individual patient.
# Drug susceptibility of approximately 1000 geographically diverse untreated patient samples was determined for all currently approved antiretrovirals using the Antivirogram™ assay. […] The fold change in sensitivity of the samples to a drug is also termed the fold resistance of the samples to the drug. The 2×SD value for each drug was used as the cut-off between sensitive (within normal susceptibile range) and resistant (above normal susceptible range). […] FIG. 1 represents an example of such an analysis for a single antiviral drug. These varied between 3-4.5 fold for the nucleosides, 6-10 fold for the NNRTIs and 2.5-4 fold for the PIs.
smiles,measurement,setting,value
Cc1cn([C@H]2C=C[C@@H](CO)O2)c(=O)[nH]c1=O [d4T],effect of the change in cut-off value on the decision concerning resistance of the samples,,doubling of the number of resistant sample
CC(C)Nc1cccnc1N1CCN(C(=O)c2cc3cc(NS(C)(=O)=O)ccc3[nH]2)CC1 [delavirdine],biological cut-off value (2×SD of fold change in sensitivity / fold resistance),"approximately 1000 untreated patient samples, new cut-off between sensitive and resistant, old cut-off was 4 fold",10 fold
same,effect of the change in cut-off value on the decision concerning resistance of the samples,,did not actually affect the decision of many samples
